Laboratory results from patent US20260191849A1, “PHARMACEUTICAL COMPOSITION FOR TREATMENT OF CANCER” (WIGEN BIOMEDICINE TECHNOLOGY (SHANGHAI) CO., LTD., priority 2022, published 2026).
Where two headings read alike, the source gives them in different places. Values belong to the compound of their own block, whether it stands above or below them.

Tests used:
[1] = test system: HT29 subcutaneous xenograft tumors; test: In vivo pharmacodynamic study, HT29 subcutaneous xenograft tumor model of mice (Biological Example 3); parameters: species or system BALB/c nude mice; settings: 80 mg/kg intragastric once daily, day 28
Procedure: BALB/c nude mice were each inoculated subcutaneously with 5×10^6 HT29 cells on the left dorsal side. After the tumors grew to 100-150 mm^3, the mice were randomly divided into the following groups for intragastric administration once daily: group 1: vehicle control group; group 2: compound 661 (80 mg/kg); group 3: compound 669 (80 mg/kg); group 4: compound 677 (80 mg/kg); group 5: compound 714 (80 mg/kg); group 6: compound 727 (80 mg/kg); group 7: compound 740 (80 mg/kg); and group 8: AMG65 (80 mg/kg). The tumor volume was measured twice weekly and at the end of administration. […].

[2] = test system: HT29 subcutaneous xenograft tumors; test: In vivo pharmacodynamic study of combination therapy, HT29 subcutaneous xenograft tumor model of mice (Biological Example 14); parameters: species or system BALB/c nude mice
From the text: BALB/c nude mice were each inoculated subcutaneously with 5×10^6 HT29 cells on the left dorsal side. After the tumors grew to 100-150 mm^3, the mice were randomly divided into the following groups for intragastric administration once daily for 14 consecutive days: group 1: vehicle control group; group 2: AMG650 (50 mpk, PO, QD); group 3: compound 714 (50 mpk, PO, QD); group 4: AMG650 (50 mpk, PO, QD)+Onvasertib (20 mpk, PO, QD); group 5: compound 714 (50 mpk, PO, QD)+Onvasertib (20 mpk, PO, QD); and group 6: Onvasertib (20 mpk, PO, QD). The administration to all the groups was stopped on day 15, and the tumor growth continued to be observed until day 21. The tumor volume was measured twice weekly and at the end of administration. […]

HCT116 cells [3] = test: In vitro anti-proliferative activity against HCT116 cells (Biological Example 2); assay type: cell-based; settings: in words, from Table 4
Procedure: (§1) HCT116 cells were seeded on a 384-well plate at 3000 cells/well. After overnight adherence culture, DMSO or the compounds serially diluted in a 1:5 ratio from 5 μM were added. The cell viability was assessed 72 h after dosing by measuring the intracellular ATP content. The inhibition percentages of viable cells by the compounds were calculated by comparing with the DMSO group, and the IC50 values were also calculated.

HCT116 cells [4] = test: Combined use of compound 257 with Aurora B inhibitor on HCT116 cell viability, 72 h (Biological Example 12); assay type: cell-based
Procedure: as §1, with “or compound 257” for “or the compounds”, “μM and an Aurora B inhibitor with a specified concentration” for “μM”

HCT116 cells [5] = test: Combined use of compound 257 with PLK1 inhibitor (CYC140, TAK-960) on HCT116 cell viability, 168 h (Biological Example 10); assay type: cell-based
Procedure: as §1, with “or compound 257” for “or the compounds”, “from 400 nM and a PLK1 inhibitor with a specified concentration” for “from 5 μM”, “assessed 168” for “assessed 72”

HT29 cells [6] = test: Combined use of compound 257 with Aurora B inhibitor on HT29 cell viability, 72 h (Biological Example 11); assay type: cell-based; settings: for IC50: Homo sapiens, HT-29, 72 h, HT29 cells
Procedure: as §1, with “HT29 cells” for “HCT116 cells”, “or compound 257” for “or the compounds”, “μM and an Aurora B inhibitor with a specified concentration” for “μM”

HCT116 cells [7] = test: Combined use of compound 257 with PLK1 inhibitor on HCT116 cell viability, 72 h (Biological Example 6); assay type: cell-based
Procedure: as §1, with “or compound 257” for “or the compounds”, “μM and a PLK1 inhibitor with a specified concentration” for “μM”

HT29 cells [8] = test: Combined use of compound 257 with PLK1 inhibitor (CYC140, TAK-960) on HT29 cell viability, 168 h (Biological Example 9); assay type: cell-based; settings: for Maximum inhibition rate / Minimum inhibition rate / IC50 / inhibition: HT29 cells; for IC50 / inhibition: Homo sapiens, HT-29, 168 h
Procedure: as §1, with “HT29 cells” for “HCT116 cells”, “or compound 257” for “or the compounds”, “from 400 nM and a PLK1 inhibitor with a specified concentration” for “from 5 μM”, “assessed 168” for “assessed 72”

[9] = PO QD 14 days, AMG650/714 50 mpk, Onvasertib 20 mpk, day 15
[10] = PO QD 14 days, AMG650/714 50 mpk, Onvasertib 20 mpk, day 21, after stop of administration

SMILES: Cc1cc(NC(=O)c2ccc(NS(=O)(=O)CCO)cc2N2CCC3(CC2)CC3)nc(N2CCC(F)(F)CC2)n1 [AMG650]
- TGI [1]: 64%
- Tumor volume on day 1 of administration ([2]; PO QD 14 days, AMG650/714 50 mpk, Onvasertib 20 mpk, day 1 (baseline)): 132 mm^3
- TGI on day 15 [2, 9]: 115%
- Tumor volume on day 15 of administration [2, 9]: 49 mm^3
- TGI on day 21 [2, 10]: 100%
- Tumor volume on day 21 of administration [2, 10]: 126 mm^3
- tumor inhibitory effect, combined use with the PLK1 inhibitor Onvasertib compared with monotherapy ([2]; combined with Onvasertib, in words): stronger tumor inhibitory effect
- therapeutic efficacy of monotherapy in HT29-bearing mice ([2]; monotherapy, in words): able to inhibit tumor growth
- anti-proliferative activity against HCT116 cells (HCT116 cells [3]): neither the compounds of the present disclosure nor AMG65 exhibited anti-proliferative activity

- IC50 (HCT116 cells [4]; HCT116 cells, Barasertib 0 nM): > 10 µM
- IC50 (HCT116 cells [4]; HCT116 cells, Barasertib 10 nM): > 10 µM
- IC50 (HCT116 cells [4]; HCT116 cells, Barasertib 100 nM): > 10 µM
- IC50 (HCT116 cells [4]; Homo sapiens, HCT-116, HCT116 cells, Barasertib 1000 nM): > 10 µM
- IC50 (HCT116 cells [5]; HCT116 cells, CYC140 (Plogosertib) 1.6 nM): > 400 nM
- IC50 (HCT116 cells [5]; HCT116 cells, CYC140 (Plogosertib) 8 nM): > 400 nM
- IC50 (HCT116 cells [5]; HCT116 cells, TAK-960 0 nM): > 400 nM
- IC50 (HCT116 cells [5]; HCT116 cells, TAK-960 8 nM): > 400 nM
- IC50 (HCT116 cells [5]; HCT116 cells, TAK-960 40 nM): > 400 nM
- IC50 (HCT116 cells [5]; Homo sapiens, HCT-116, HCT116 cells, CYC140 (Plogosertib) 0 nM): > 400 nM
- IC50 (HT29 cells [6]; Barasertib 0 nM): 13.9 nM
- IC50 (HT29 cells [6]; Barasertib 20 nM): 7.3 nM
- IC50 (HT29 cells [6]; Barasertib 100 nM): 4.2 nM
- IC50 (HT29 cells [6]; Barasertib 500 nM): 3.3 nM
- IC50 (HT29 cells [6]; SP-96 0 nM): 14.5 nM
- IC50 (HT29 cells [6]; SP-96 20 nM): 16.1 nM
- IC50 (HT29 cells [6]; SP-96 100 nM): 14.5 nM
- IC50 (HT29 cells [6]; SP-96 500 nM): 5.8 nM
- IC50 (HCT116 cells [7]; HCT116 cells, Volasertib 10 nM): > 10 µM
- IC50 (HCT116 cells [7]; HCT116 cells, Volasertib 50 nM): > 10 µM
- IC50 (HCT116 cells [7]; Homo sapiens, HCT-116, HCT116 cells, Volasertib 0 nM): > 10 µM
- IC50 (HT29 cells [8]; CYC140 (Plogosertib) 0 nM): 15.7 nM
- IC50 (HT29 cells [8]; CYC140 (Plogosertib) 1.6 nM): 10.4 nM
- IC50 (HT29 cells [8]; CYC140 (Plogosertib) 8 nM): 3.1 nM
- IC50 (HT29 cells [8]; TAK-960 0 nM): 14 nM
- IC50 (HT29 cells [8]; TAK-960 8 nM): 13.1 nM
- IC50 (HT29 cells [8]; TAK-960 40 nM): 2.4 nM
SMILES: COc1ccc(NC(=O)c2ccc(NS(=O)(=O)CCO)cc2N2CCC3(CC2)CC3)nc1N1CCC(F)(F)CC1 [Compound 257]
- anti-proliferative activity against HCT116 cells, monotherapy (HCT116 cells [4]; in words): did not exhibit anti-proliferative activity
- synergistic effect on HCT116 cell viability, combined use with the Aurora B inhibitor (HCT116 cells [4]; in words): no significant synergistic effect
- synergistic effect on HCT116 cell viability, combined use with the PLK1 inhibitor (HCT116 cells [5]; CYC140 or TAK-960, in words): no significant synergistic effect
- anti-proliferative activity against HCT116 cells, monotherapy (HCT116 cells [5]; in words): did not exhibit anti-proliferative activity
- inhibitory effect on HT-29 cells, combined use with the Aurora B inhibitor compared with monotherapy (HT29 cells [6]; in words): stronger inhibitory effect
- anti-proliferative activity against HCT116 cells, monotherapy (HCT116 cells [7]; in words): did not exhibit anti-proliferative activity
- synergistic effect on HCT116 cell viability, combined use with the PLK1 inhibitor (HCT116 cells [7]; in words): no significant synergistic effect
- inhibitory effect on HT-29 cells, combined use with the PLK1 inhibitor compared with monotherapy (HT29 cells [8]; CYC140 or TAK-960, in words): stronger inhibitory effect
- Maximum inhibition rate (HT29 cells [8]; CYC140 (Plogosertib) 0 nM): 44.2%
- Minimum inhibition rate (HT29 cells [8]; CYC140 (Plogosertib) 0 nM): -7.1%
- Maximum inhibition rate (HT29 cells [8]; TAK-960 0 nM): 57.1%
- Minimum inhibition rate (HT29 cells [8]; TAK-960 0 nM): 1.5%
- inhibition (HT29 cells [8]; CYC140 (Plogosertib) 1.6 nM, read-out: Maximum inhibition rate): 80.3%
- inhibition (HT29 cells [8]; CYC140 (Plogosertib) 1.6 nM, read-out: Minimum inhibition rate): -0.7%
- inhibition (HT29 cells [8]; CYC140 (Plogosertib) 8 nM, read-out: Maximum inhibition rate): 90.9%
- inhibition (HT29 cells [8]; CYC140 (Plogosertib) 8 nM, read-out: Minimum inhibition rate): 0.4%
- inhibition (HT29 cells [8]; TAK-960 8 nM, read-out: Maximum inhibition rate): 86.1%
- inhibition (HT29 cells [8]; TAK-960 8 nM, read-out: Minimum inhibition rate): 7.5%
- inhibition (HT29 cells [8]; TAK-960 40 nM, read-out: Maximum inhibition rate): 93.6%
- inhibition (HT29 cells [8]; TAK-960 40 nM, read-out: Minimum inhibition rate): -4%
